Results on 14 molecules are retold here after ChEMBL document CHEMBL1955729, “N⁴-(3-Bromophenyl)-7-(substituted benzyl) pyrrolo[2,3-d]pyrimidines as potent multiple receptor tyrosine kinase inhibitors: design, synthesis, and in vivo evaluation” (Bioorg Med Chem, 2012).

The source made the active and inactive calls. The rule behind the calls is not given here. Bounds are passed on as bounds.

The target of series [1] is T1, Vascular endothelial growth factor receptor 2 (Homo sapiens, UniProt P35968).
T1 sequence (P35968 whole entry): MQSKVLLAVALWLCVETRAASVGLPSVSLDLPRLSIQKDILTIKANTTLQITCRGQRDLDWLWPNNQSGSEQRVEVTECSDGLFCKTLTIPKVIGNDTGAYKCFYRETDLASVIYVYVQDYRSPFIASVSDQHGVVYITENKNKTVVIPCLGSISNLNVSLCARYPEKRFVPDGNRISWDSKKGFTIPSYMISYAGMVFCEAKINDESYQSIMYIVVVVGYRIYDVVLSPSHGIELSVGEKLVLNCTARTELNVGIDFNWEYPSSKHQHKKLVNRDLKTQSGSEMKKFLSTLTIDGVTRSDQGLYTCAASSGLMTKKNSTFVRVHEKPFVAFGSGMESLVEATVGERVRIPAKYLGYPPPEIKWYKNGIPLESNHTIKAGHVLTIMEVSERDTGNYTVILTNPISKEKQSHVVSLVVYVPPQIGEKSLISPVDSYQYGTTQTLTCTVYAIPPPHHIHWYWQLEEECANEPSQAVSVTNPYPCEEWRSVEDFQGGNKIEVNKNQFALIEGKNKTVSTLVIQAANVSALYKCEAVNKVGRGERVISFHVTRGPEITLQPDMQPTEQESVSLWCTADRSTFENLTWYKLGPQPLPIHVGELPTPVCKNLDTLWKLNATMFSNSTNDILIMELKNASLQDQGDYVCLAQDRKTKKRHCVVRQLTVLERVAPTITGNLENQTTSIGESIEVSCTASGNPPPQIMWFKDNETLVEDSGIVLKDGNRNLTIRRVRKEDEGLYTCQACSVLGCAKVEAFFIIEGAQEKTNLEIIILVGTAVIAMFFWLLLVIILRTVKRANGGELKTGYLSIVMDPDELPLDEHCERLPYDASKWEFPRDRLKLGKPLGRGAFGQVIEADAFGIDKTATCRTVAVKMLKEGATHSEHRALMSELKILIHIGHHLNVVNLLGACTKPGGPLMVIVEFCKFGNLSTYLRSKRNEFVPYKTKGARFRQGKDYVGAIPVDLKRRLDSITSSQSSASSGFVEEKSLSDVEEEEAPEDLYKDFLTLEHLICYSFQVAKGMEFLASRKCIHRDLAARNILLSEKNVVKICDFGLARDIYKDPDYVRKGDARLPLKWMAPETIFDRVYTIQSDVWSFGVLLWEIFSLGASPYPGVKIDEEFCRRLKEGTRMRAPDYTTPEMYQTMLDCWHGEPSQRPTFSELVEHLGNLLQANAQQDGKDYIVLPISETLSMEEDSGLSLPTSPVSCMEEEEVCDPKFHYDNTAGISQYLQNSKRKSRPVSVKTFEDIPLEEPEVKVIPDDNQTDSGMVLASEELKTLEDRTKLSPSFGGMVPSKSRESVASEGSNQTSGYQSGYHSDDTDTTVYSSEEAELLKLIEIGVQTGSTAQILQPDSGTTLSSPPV
Series [2] deals with T2, Vascular endothelial growth factor receptor 1 (Homo sapiens, UniProt P17948).
T2 sequence (P17948 whole entry): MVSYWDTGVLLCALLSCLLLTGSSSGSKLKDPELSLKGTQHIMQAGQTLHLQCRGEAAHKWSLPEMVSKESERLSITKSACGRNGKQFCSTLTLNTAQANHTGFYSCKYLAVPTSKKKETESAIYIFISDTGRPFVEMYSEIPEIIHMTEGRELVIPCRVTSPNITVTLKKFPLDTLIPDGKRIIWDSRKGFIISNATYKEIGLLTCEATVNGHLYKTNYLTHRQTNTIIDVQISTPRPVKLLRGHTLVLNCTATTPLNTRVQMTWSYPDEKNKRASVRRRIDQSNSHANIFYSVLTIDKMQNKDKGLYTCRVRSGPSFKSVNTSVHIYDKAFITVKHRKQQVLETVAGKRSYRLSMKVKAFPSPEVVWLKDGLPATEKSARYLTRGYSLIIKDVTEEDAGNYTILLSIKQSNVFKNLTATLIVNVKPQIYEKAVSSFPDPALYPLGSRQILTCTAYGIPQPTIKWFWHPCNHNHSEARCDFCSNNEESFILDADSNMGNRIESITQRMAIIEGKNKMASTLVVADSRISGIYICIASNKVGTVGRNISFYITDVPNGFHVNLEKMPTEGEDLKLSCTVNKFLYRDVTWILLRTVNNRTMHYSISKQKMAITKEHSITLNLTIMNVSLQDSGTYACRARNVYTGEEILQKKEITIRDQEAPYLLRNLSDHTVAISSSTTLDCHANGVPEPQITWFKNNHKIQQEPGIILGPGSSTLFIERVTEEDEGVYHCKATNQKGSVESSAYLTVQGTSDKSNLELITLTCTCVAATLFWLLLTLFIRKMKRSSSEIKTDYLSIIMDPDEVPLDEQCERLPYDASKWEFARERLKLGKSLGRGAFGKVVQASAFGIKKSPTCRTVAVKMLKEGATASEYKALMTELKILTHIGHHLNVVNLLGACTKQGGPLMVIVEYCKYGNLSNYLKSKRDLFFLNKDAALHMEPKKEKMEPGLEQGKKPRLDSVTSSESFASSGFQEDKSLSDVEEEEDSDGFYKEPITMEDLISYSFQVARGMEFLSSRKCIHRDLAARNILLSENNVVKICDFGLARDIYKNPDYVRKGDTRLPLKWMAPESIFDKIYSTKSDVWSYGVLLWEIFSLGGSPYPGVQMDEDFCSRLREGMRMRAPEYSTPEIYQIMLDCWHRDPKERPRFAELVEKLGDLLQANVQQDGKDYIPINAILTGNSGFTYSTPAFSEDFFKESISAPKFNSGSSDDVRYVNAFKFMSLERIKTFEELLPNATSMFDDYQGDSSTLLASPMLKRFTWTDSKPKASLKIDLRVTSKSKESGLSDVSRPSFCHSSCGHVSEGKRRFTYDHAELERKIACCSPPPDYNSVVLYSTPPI
Series [3] concerns the target Epidermal growth factor receptor (Homo sapiens, UniProt P00533).
In series [4] the target is T3, Platelet-derived growth factor receptor beta (Homo sapiens, UniProt P09619). The series is described as follows: Inhibition of PDGFBB-induced PDGFRbeta autophosphorylation in human SF539 cells incubated for 60 mins prior to PDGFBB-induction measured after 10 mins by phosphotyrosine ELISA. It is filed as cell-based, SF-539.
T3 sequence (P09619 whole entry): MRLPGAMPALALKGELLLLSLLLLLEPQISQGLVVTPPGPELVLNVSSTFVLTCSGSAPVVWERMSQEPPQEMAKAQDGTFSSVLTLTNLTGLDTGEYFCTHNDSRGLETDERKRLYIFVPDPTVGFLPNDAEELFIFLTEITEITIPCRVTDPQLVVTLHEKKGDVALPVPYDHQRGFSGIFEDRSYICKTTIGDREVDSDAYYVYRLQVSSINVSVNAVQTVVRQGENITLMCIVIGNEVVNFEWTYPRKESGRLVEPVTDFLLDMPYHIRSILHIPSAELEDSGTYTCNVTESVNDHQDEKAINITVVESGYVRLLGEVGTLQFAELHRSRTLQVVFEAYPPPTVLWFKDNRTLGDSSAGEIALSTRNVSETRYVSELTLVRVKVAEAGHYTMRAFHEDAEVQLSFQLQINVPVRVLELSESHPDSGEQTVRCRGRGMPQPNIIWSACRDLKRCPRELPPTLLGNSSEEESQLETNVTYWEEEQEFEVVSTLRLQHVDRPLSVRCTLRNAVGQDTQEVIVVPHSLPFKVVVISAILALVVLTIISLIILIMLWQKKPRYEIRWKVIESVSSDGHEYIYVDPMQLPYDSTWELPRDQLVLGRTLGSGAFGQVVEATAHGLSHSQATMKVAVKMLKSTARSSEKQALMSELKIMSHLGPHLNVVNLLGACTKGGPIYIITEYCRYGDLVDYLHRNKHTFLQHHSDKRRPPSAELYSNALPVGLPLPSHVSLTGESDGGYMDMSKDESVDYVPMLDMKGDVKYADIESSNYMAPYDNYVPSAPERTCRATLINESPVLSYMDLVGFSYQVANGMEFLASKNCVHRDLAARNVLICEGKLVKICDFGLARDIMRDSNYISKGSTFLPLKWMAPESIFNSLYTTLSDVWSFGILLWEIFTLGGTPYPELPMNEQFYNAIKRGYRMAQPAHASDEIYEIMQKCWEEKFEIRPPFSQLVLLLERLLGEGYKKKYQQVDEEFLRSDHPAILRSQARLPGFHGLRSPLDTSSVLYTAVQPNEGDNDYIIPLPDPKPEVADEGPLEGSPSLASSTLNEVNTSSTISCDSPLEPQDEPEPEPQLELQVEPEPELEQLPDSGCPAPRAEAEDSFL
Series [5] deals with T2, Vascular endothelial growth factor receptor 1. The source holds these as a separate data set.
Series [6] concerns the target T1, Vascular endothelial growth factor receptor 2. This is another data set of the same source.
For series [7], the target named is T3, Platelet-derived growth factor receptor beta.
Series [8] relates to COLO 205. The series is described as follows: Antimetastatic activity against human COLO205 cells xenografted in athymic NIH-II mouse at 10 mg/kg, ip administered for 3 days per week by hematoxylin and eosin staining. The format is functional, organism-based. Also noted: dose 10 mg/kg.
Series [9] relates to COLO 205. The series is described as follows: Antiangiogenic activity in human COLO205 cells xenografted in athymic NIH-II mouse at 10 mg/kg, ip administered 3 days per week by hematoxylin and eosin staining relative to control. The format is functional, organism-based. On the set-up: dose 10 mg/kg.
A further series concerns Mus musculus. The series is described as follows: (§1) Toxicity in NCr nu/nu mouse assessed as body weight loss administered for 3 days per week measured after 6 weeks. To be noted: in vivo, 1008 h. It is filed as organism-based.
For series [10], the system named is COLO 205. The series is described as follows: Antitumor activity against human COLO205 cells xenografted in athymic NIH-II mouse assessed as decrease in tumor growth rate at 10 mg/kg, ip administered 3 days per week relative to control. The format is functional, organism-based. Also noted: dose 10 mg/kg.
In series [11] the test system is COLO 205. The series is described as follows: Antiangiogenic activity in human COLO205 cells xenografted in athymic NIH-II mouse at 35 mg/kg, ip administered 3 days per week by hematoxylin and eosin staining relative to control. The format is functional, organism-based. Also noted: dose 35 mg/kg.
In series [12] the test system is COLO 205. The series is described as follows: Antitumor activity against human COLO205 cells xenografted in athymic NIH-II mouse assessed as decrease in tumor growth rate at 35 mg/kg, ip administered 3 days per week relative to control. The format is functional, organism-based. Also noted: dose 35 mg/kg.
The test system of series [13] is COLO 205. The series is described as follows: Antimetastatic activity against human COLO205 cells xenografted in athymic NIH-II mouse at 35 mg/kg, ip administered for 3 days per week by hematoxylin and eosin staining. Also noted: dose 35 mg/kg. It is filed as functional, organism-based.
Series [14] can be described thus: as §1. The following applies: NCr nu/nu, in vivo. The format is organism-based.

Epidermal growth factor receptor, sequence (P00533 whole entry): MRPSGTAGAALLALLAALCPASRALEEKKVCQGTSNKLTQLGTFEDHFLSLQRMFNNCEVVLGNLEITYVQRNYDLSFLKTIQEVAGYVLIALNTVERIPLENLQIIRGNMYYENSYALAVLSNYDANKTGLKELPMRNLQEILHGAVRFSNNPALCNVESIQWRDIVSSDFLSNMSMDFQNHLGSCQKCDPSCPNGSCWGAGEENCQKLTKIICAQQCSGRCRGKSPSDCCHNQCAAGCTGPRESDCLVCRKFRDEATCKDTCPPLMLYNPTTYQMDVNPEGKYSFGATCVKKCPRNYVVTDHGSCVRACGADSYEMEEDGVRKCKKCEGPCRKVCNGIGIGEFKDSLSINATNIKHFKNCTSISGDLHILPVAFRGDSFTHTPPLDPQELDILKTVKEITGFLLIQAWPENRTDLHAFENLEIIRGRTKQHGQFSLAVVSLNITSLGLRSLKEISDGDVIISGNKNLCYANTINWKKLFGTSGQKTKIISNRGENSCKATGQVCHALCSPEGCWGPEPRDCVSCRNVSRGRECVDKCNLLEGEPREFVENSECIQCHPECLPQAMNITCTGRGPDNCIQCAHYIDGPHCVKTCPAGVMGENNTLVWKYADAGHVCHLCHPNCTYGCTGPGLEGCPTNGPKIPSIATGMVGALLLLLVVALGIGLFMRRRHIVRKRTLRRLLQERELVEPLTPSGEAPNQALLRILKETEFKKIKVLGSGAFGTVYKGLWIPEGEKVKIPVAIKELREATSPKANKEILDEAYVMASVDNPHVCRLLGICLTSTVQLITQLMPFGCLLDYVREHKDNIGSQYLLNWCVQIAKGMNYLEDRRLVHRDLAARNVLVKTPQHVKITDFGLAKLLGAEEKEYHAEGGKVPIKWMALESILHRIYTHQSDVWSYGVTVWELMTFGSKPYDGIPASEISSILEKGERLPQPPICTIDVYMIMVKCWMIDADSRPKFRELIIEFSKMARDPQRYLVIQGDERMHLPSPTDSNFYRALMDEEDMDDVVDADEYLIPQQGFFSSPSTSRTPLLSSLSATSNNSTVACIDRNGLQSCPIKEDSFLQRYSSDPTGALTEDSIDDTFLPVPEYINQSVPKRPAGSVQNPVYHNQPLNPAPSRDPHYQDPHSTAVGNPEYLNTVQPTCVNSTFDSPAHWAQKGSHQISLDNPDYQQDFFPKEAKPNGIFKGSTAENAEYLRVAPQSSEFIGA

Regarding `Nc1nc(Nc2cccc(Br)c2)c2ccn(Cc3ccc(Cl)cc3Cl)c2n1`, the IC50 in series [1] was greater than 200 µM; in series [2], 138 µM; in series [3], greater than 200 µM; in series [4], 34.2 µM.

Turning to `COc1ccc(OC)c(Cn2ccc3c(Nc4cccc(Br)c4)nc(N)nc32)c1`, the figures for the IC50 in series [1], in series [2] and in series [3] were greater than 200 µM, greater than 200 µM and 69.2 µM, respectively.

As for `Nc1nc(Nc2cccc(Br)c2)c2cc(Cc3ccc(Cl)cc3)[nH]c2n1`, the half-inhibitory concentration (IC50) in series [5] was 42.7 µM; in series [6] it was 8.28 µM; in [7], greater than 50 µM.

For the molecule `Nc1nc(Nc2cccc(Br)c2)c2cc(Cc3ccc(Cl)c(Cl)c3)[nH]c2n1`, the half-maximal inhibitory concentration (IC50) in series [7] was greater than 50 µM.

For `Nc1nc(Nc2cccc(Br)c2)c2ccn(Cc3ccc4ccccc4c3)c2n1`, the IC50 in [1] was 22.9 µM; in [2], 50.8 µM; in [3], greater than 200 µM; in series [4], 212 µM.

For the molecule `Cc1[nH]c(/C=C2\C(=O)Nc3ccccc32)c(C)c1CCC(=O)O` [ORANTINIB], the outcome with COLO 205 [8] was inactive. Also, the outcome in the series with COLO 205 [9] was Active. Besides, the MTD in the series with Mus musculus was 10 mg/kg. Further, the TGI entry in the series on COLO 205 [10] is “Active”.

For the molecule `Nc1nc(Nc2cccc(Br)c2)c2ccn(Cc3ccc(-c4ccccc4)cc3)c2n1`, the half-inhibitory concentration (IC50) in series [1] was 22.9 µM; in series [2], greater than 200 µM; in series [3], greater than 200 µM; in series [4], 129 µM.

Regarding `Nc1nc(Nc2cccc(Br)c2)c2ccn(Cc3cccc4ccccc34)c2n1`, the IC50 in series [1] was 14.9 µM; in series [2], 150 µM; in [3] it was greater than 200 µM; in [4] it was 129 µM.

Regarding `Nc1nc(Nc2cccc(Br)c2)c2ccn(Cc3ccc(Cl)cc3)c2n1`, the IC50 in series [1] was 65.3 µM; in [2], 79.9 µM; in series [3] it was 99.9 µM; in series [4], greater than 500 µM.

Take `Cc1ccccc1Cn1ccc2c(Nc3cccc(Br)c3)nc(N)nc21`: the concentration for half-maximal inhibition (IC50) in series [1] was 113 µM; in [2], 129 µM; in series [3] it was 113 µM; in series [4], 160 µM.

With `Nc1nc(Nc2cccc(Br)c2)c2ccn(Cc3ccccc3)c2n1`, the 50% inhibitory concentration (IC50) is 23.8 µM in [1], 99.3 µM in series [2], 166 µM in series [3] and greater than 500 µM in series [4].

With `Nc1nc(Nc2cccc(Br)c2)c2ccn(Cc3ccc(Cl)c(Cl)c3)c2n1`, the half-maximal inhibitory concentration (IC50) in series [1] is 64.5 µM; in [2], 119 µM; in series [3], greater than 200 µM; in series [4], 230 µM.

In the case of `COc1cc(Cn2ccc3c(Nc4cccc(Br)c4)nc(N)nc32)cc(OC)c1OC`, the IC50 in series [1] was 25.7 µM; in [2], 156 µM; in series [3] it was greater than 200 µM; in series [4], 1.8 µM.

Regarding `Nc1nc(Nc2cccc(Br)c2)c2ccn(Cc3ccccc3Cl)c2n1`, the outcome with COLO 205 [11] and in the series with COLO 205 [13] was Active. Further, the TGI result in the series with COLO 205 [12] was “Active”. Moreover, the IC50 was 17.9 µM in [1], 126 µM in [2], greater than 200 µM in [3] and 1.5 µM in series [4]. Also, in [14], the MTD at 1008 h was determined as 35 mg/kg.
